Legend:
[1] = tested on: ASD behaviors; settings: 12 week, mean dose 5 mg/day; cited from earlier work
[2] = tested on: youth with ASD; experiment: 12-week randomized, double-blind, placebo-controlled trial: efficacy on autism related impairments (SRS-2, CGI-I, ABC-Social Withdrawal, CY-BOCS-PDD); type: in vivo, human; design: SRS-SCI / SRS-Social Cognition / SRS-Social Awareness / SRS-Social Motivation / SRS-Social Communication / SRS-Autistic Mannerisms / ABC-Social Withdrawal: scale not given here; settings: for ABC-Social Withdrawal / CY-BOCS-PDD / SRS-Autistic Mannerisms / SRS-SCI / SRS-Social Awareness / SRS-Social Cognition / SRS-Social Communication / SRS-Social Motivation / SRS-Total: MEM [N = 16]
Experimental: This study was a 12-week, randomized, double-blind, placebo-controlled, parallel group clinical trial of memantine in youth with ASD. Youth with ASD who met the eligibility criteria were randomized to receive either memantine or placebo during the course of the 12-week trial. Participants underwent multimodal MRI scans prior to and upon completion of the 12-week trial. Participants were assessed weekly during the titration phase (baseline to Week 4) and at midpoint (Week 6), Week 9, and completion (Week 12) during the maintenance phase. At each study visit, safety and efficacy were assessed by administering measures of efficacy (CGI, GAF), tolerability (assessing treatment-emergent AEs), and safety (vital signs, including weight). At baseline, midpoint, and endpoint (completion/early termination) severity of autism was assessed by administering measures of autism severity (SRS-2, ABC-SW, CY-BOCS-PDD) and associated psychopathology (ADHD-RS, CDRS-R, CASI-ANX).
Eligible participants were of both sexes, aged 8 to 17 years, with intact intellectual ability, as established by a full-scale intelligence quotient of 85 or greater based on the Vocabulary and Matrix Reasoning subtests of the Wechsler Abbreviated Scale of Intelligence-Second Edition (WASI-II (Wechsler, 2011)). Participants were required to meet DSM-IV-TR/5 diagnostic criteria for autism, as established by clinical diagnostic evaluation and to have at least moderate severity of ASD, as determined by a total raw score of 85 or greater on the informant-rated Social Responsiveness Scale-Second Edition (SRS-2; (Constantino et al., 2003)) and a score of 4 or greater on the clinician-rated National Institute of Mental Health (NIMH) Clinical Global Impression (CGI) severity scale (CGI-S; (National Institute of Mental Health, 1985)).
In this 12-week, randomized, double-blind, placebo-controlled, parallel group clinical, ASD participants were randomized in a 1:1 ratio to receive memantine or placebo. An independent statistician created a computer-generated randomization schedule, using stratified randomization by sex (male vs. female) and race (Caucasian vs. Non-Caucasian). The Clinical Trials Pharmacy at MGH dispensed the study medication (memantine and placebo) based on the randomization schedule. The randomization schedule remained confidential throughout the study.
Study medication was titrated to the maximum daily dose during the first 4 weeks of the trial (dose titration phase) and from there on, subjects were maintained on maximum achieved dose until the end of the trial (dose maintenance phase). Titration of the study medication was guided by a flexible titration schedule which allowed for slower titration or maintaining at a lower dose, as guided by study clinician judgment of tolerability. Study medication was administered in divided dosages. Study medication was initiated at 2.5 mg/day (raised to 5 mg/day on day 4) and was up-titrated by 5 mg/week to a maximum dose of 20 mg/day.
The efficacy of memantine for the treatment of autism related impairments was assessed by the informant-rated Social Responsiveness Scale—Second Edition (SRS-2) as continuous outcome measure, and by the clinician-rated CGI-I subscale, as categorical outcome measure. Treatment response criteria for this trial was defined as≥25% improvement on the SRS-2 and a score of 2 or 1 on the CGI-I subscale, i.e., “much” or “very much improved.”
Additional treatment response of autism impairment was examined for the ASD subdomains by assessing change with treatment in the severity of the SRS-2 subscales and the Children's Yale Brown Obsessive Compulsive Scale modified for PDD (CY-BOCS-PDD) (Goodman et al., 1986 (Rev 89); Scahill et al., 2006) to assess change with treatment in the ritualistic behaviors associated with ASD. […]

What does the source list for `CC12CC3CC(C)(C1)CC(N)(C3)C2` [MEM, memantine]?
ASD behaviors relative to placebo response [1]: no improvement in ASD behaviors; SRS-Social Awareness, ES [95% CI] ([2]; Cohen's d, MEM vs PBO): 0.74; SRS-Social Cognition, ES [95% CI] ([2]; Cohen's d, MEM vs PBO): 0.83; ABC-Social Withdrawal ([2]; BL (baseline)): 12.5 ± 8.6; CY-BOCS-PDD ([2]; BL (baseline)): 2.9 ± 5.4; SRS-Autistic Mannerisms ([2]; BL (baseline)): 21.1 ± 5.9; SRS-SCI ([2]; BL (baseline)): 93.5 ± 17.0; SRS-Social Awareness ([2]; BL (baseline)): 14.3 ± 3.0; SRS-Social Cognition ([2]; BL (baseline)): 20.0 ± 3.9; SRS-Social Communication ([2]; BL (baseline)): 40.1 ± 8.1; SRS-Social Motivation ([2]; BL (baseline)): 19.1 ± 6.9; SRS-Total ([2]; BL (baseline)): 114.5 ± 21.3; ABC-Social Withdrawal ([2]; EP (endpoint)): 5.6 ± 5.4; CY-BOCS-PDD ([2]; EP (endpoint)): 1.9 ± 4.0; SRS-Autistic Mannerisms ([2]; EP (endpoint)): 13.4 ± 3.8; SRS-SCI ([2]; EP (endpoint)): 63.8 ± 20.0; SRS-Social Awareness ([2]; EP (endpoint)): 10.7 ± 3.0; SRS-Social Cognition ([2]; EP (endpoint)): 13.7 ± 4.5; SRS-Social Communication ([2]; EP (endpoint)): 27.0 ± 10.4; SRS-Social Motivation ([2]; EP (endpoint)): 12.4 ± 5.7; SRS-Total ([2]; EP (endpoint)): 77.0 ± 22.5; ABC-Social Withdrawal ([2]; MD (mean difference)): −6.9 ± 7.0; CY-BOCS-PDD ([2]; MD (mean difference)): −0.9 ± 2.1; SRS-Autistic Mannerisms ([2]; MD (mean difference)): −7.8 ± 6.4; SRS-SCI ([2]; MD (mean difference)): −29.8 ± 22.2; SRS-Social Awareness ([2]; MD (mean difference)): −3.6 ± 3.9; SRS-Social Cognition ([2]; MD (mean difference)): −6.3 ± 5.6; SRS-Social Communication ([2]; MD (mean difference)): −13.0 ± 9.4; SRS-Social Motivation ([2]; MD (mean difference)): −6.8 ± 5.4; SRS-Total ([2]; MD (mean difference)): −37.6 ± 27.9; ≥25% ↓↓SRS + CGI-I ≤ 2, ES [95% CI] ([2]; Odds Ratio, MEM vs PBO): 4.82
